# Experimental data reported in patent publication US20130217664A1, “NOVEL COMPOUNDS USEFUL FOR THE TREATMENT OF DEGENERATIVE AND INFLAMMATORY DISEASES” (priority 2012, published 2013).
# Where two headings read alike, the source gives them in different places.
# What was measured:
# human JAK1 = molecular target: T1, human JAK1 (Homo sapiens, UniProt P23458); assay: JAK1 inhibition assay (polyGT substrate / Ulight-JAK1 peptide); assay type: biochemical; settings: recombinant human JAK1 catalytic domain; polyGT or Ulight-JAK1 peptide assay
# T1 construct: catalytic domain, amino acids 866-1154; catalog number PV4774; purchased Invitrogen PV4774
# Summary of the method: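 Signal scaled between vehicle and 10 μM staurosporine. Radiometric polyGT reactions ran 45 min at 30 °C, counted after phosphoric-acid stop. Ulight peptide reactions ran 60 min at room temperature, fluorescence read after adding Eu-PT66 detection mix with EDTA.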
# human JAK3 = molecular target: T2, human JAK3 (Homo sapiens, UniProt P52333); assay: JAK3 inhibition assay; assay type: biochemical; settings: recombinant human JAK3 catalytic domain; polyGT substrate
# T2 construct: catalytic domain (amino acids 781-1124; catalog number PV3855); purchased Invitrogen PV3855
# Summary of the method: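 Radiometric kinase assay: 0.5 ng JAK3 with 2.5 μg polyGT in Tris pH 7.5/MgCl2 buffer, 1 μM ATP plus 0.25 μCi 33P-γ-ATP, 1% DMSO, 45 min at 30 °C, stopped with phosphoric acid.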
# [1] = system: pSTAT1(2)-luciferase reporter in HeLa cells triggered with human OSM; assay: JAK-STAT signalling assay; assay type: cell-based; settings: read-out: JAK-STAT IC50
# Protocol: JAK-STAT Signalling Assay
# HeLa cells were maintained in Dulbecco's Modified Eagle's Medium (DMEM) containing 10% heat inactivated fetal calf serum, 100 U/mL penicillin and 100 μg/mL streptomycin. HeLa cells were used at 70% confluence for transfection. 20,000 cells in 87 μL cell culture medium were transiently transfected with 40 ng pSTAT1(2)-luciferase reporter (Panomics), 8 ng of LacZ reporter as internal control reporter and 52 ng of pBSK using 0.32 μL Jet-PEI (Polyplus) as transfection reagent per well in 96-well plate format. After overnight incubation at 37° C., 5% CO2, transfection medium was removed. 81 μL of DMEM+1.5% heat inactivated fetal calf serum was added. 9 μL compound at 10× concentration was added for 60 min and then 10 μL of human OSM (Peprotech) at 33 ng/mL final concentration.
# After overnight incubation at 37° C., 5% CO2 cells were lysed by adding 100 μL lysis buffer/well (PBS, 0.9 mM CaCl2, 0.5 mM MgCl2, 10% Trehalose, 0.05% Tergitol NP9, 0.3% BSA).
# 40 μL of cell lysate was used to read β-galactosidase activity by adding 180 μL β-Gal solution (30 μL ONPG 4 mg/mL+150 μL β-Galactosidase buffer (0.06 M Na2HPO4, 0.04 M NaH2PO4, 1 mM MgCl2)) for 20 min.
# Luciferase activity was measured using 40 μL cell lysate plus 40 μL of Steadylite as described by the manufacturer (Perkin Elmer), on the Envision (Perkin Elmer).
# The positive and negative controls were used to calculate z′ and ‘percent inhibition’ (PIN) values.
# Percentage inhibition=((fluorescence determined in the presence of vehicle−fluorescence determined for sample with test compound present)divided by(fluorescence determined in the presence of vehicle−fluorescence determined for sample without trigger))*100.
# PIN values were plotted for compounds tested in dose-response and EC50 values were derived.
# human TYK2 = molecular target: T3, human TYK2 (Homo sapiens, UniProt P29597); assay: TYK2 inhibition assay; assay type: biochemical; settings: recombinant human TYK2 catalytic domain, polyGT substrate
# T3 construct: catalytic domain (amino acids 871-1187; catalog number 08-147); purchased Carna Biosciences 08-147
# T3 sequence (P29597 871-1187): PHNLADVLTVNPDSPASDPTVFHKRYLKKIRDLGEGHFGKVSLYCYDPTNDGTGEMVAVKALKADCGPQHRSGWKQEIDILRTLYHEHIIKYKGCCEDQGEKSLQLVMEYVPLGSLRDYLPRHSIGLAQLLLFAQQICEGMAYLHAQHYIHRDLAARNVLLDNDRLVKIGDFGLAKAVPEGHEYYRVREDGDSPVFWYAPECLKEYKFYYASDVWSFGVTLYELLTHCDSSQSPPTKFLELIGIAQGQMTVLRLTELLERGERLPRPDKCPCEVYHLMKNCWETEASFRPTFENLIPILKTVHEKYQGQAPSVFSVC
# Summary of the method: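 Radiometric kinase reaction run 90 min at 30 °C, stopped with phosphoric acid, washed and scintillation-counted.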
# [2] = Homo sapiens, HeLa, HeLa cells, pSTAT1(2)-luciferase reporter, human OSM 33 ng/mL
# [3] = HeLa cells, pSTAT1(2)-luciferase reporter, human OSM 33 ng/mL
# T2 sequence (P52333 781-1124): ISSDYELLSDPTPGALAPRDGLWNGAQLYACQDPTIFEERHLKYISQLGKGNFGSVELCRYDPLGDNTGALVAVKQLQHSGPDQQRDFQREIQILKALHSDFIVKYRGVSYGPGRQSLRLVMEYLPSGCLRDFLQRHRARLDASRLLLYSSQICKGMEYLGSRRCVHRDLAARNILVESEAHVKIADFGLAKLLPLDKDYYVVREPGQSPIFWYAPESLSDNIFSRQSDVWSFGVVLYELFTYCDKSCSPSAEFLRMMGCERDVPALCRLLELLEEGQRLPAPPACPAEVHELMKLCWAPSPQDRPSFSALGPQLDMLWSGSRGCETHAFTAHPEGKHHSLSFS
# T1 sequence (P23458 866-1154): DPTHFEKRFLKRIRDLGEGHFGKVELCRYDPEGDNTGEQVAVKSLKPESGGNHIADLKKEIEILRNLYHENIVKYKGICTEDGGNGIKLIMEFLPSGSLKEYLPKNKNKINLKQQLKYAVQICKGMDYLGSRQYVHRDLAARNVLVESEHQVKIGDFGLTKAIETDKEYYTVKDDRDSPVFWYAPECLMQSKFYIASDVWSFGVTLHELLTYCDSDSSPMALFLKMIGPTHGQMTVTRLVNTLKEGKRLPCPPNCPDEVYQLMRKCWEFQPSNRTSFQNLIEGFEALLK
SMILES,IC50 (human JAK1),IC50 (human JAK3),"IC50 [1, 2]",IC50 (human TYK2),"IC50 ([1]; Homo sapiens, HeLa)","IC50 [1, 3]"
"CCc1cc(C2=CCN(C(=O)C3(C#N)CC3)CC2)ccc1N(C)c1cc2c(cn1)ncn2C [Compound 198, 1-(4-(3-ethyl-4-(methyl(1-methyl-1H-imidazo[4,5-c]pyridin-6-yl)amino)phenyl)-1,2,3,6-tetrahydropyridine-1-carbonyl)cyclopropane-carbonitrile]",0.01 to 100 nM,101 to 500 nM,501 to 1000 nM,0.01 to 100 nM,,
"CCc1cc(C2=CCN(C(=O)N3CCC3)CC2)ccc1N(C)c1cc2c(cn1)ncn2C [Compound 205, azetidin-1-yl(4-(3-ethyl-4-(methyl(1-methyl-1H-imidazo[4,5-c]pyridin-6-yl)amino)phenyl)-5,6-dihydropyridin-1(2H)-yl)methanone]",0.01 to 100 nM,101 to 500 nM,1 to 500 nM,0.01 to 100 nM,,
"CCc1cc(C2=CCN(C(=O)NC)CC2)ccc1N(C)c1cc2c(cn1)ncn2C [Compound 204, 4-(3-ethyl-4-(methyl(1-methyl-1H-imidazo[4,5-c]pyridin-6-yl)amino)phenyl)-N-methyl-5,6-dihydropyridine-1(2H)-carboxamide]",0.01 to 100 nM,0.01 to 100 nM,1 to 500 nM,0.01 to 100 nM,,
"CCc1cc(-c2cnn(CC(=O)C(C)(C)C)c2)ccc1N(C)c1cc2c(cn1)ncn2C [Compound 221, 1-(4-(3-ethyl-4-(methyl(1-methyl-1H-imidazo[4,5-c]pyridin-6-yl)amino)phenyl)-1H-pyrazol-1-yl)-3,3-dimethylbutan-2-one]",0.01 to 100 nM,> 1000 nM,> 1000 nM,101 to 500 nM,,
"CCc1cc(OCC#N)ccc1N(C)c1cc2c(cn1)ncn2C [Compound 295, 2-(3-ethyl-4-(methyl(1-methyl-1H-imidazo[4,5-c]pyridin-6-yl)amino)phenoxy)acetonitrile]",0.01 to 100 nM,101 to 500 nM,,0.01 to 100 nM,1 to 500 nM,
"COc1cc(-c2cnn(C)c2)ncc1N(C)c1cc2c(cn1)ncn2C [Compound 263, N-(4-methoxy-6-(1-methyl-1H-pyrazol-4-yl)pyridin-3-yl)-N,1-dimethyl-1H-imidazo[4,5-c]pyridin-6-amine]",501 to 1000 nM,> 1000 nM,,> 1000 nM,,> 1000 nM
"CCc1cc(C2=CCN(C(=O)CC(C)(C)O)CC2)ccc1N(C)c1cc2c(cn1)ncn2C [Compound 200, 1-(4-(3-ethyl-4-(methyl(1-methyl-1H-imidazo[4,5-c]pyridin-6-yl)amino)phenyl)-5,6-dihydropyridin-1(2H)-yl)-3-hydroxy-3-methylbutan-1-one]",0.01 to 100 nM,101 to 500 nM,501 to 1000 nM,0.01 to 100 nM,,
"CCC(=O)N1CC=C(c2ccc(N(C)c3cc4c(cn3)ncn4C)c(CC)c2)CC1 [Compound 158, 1-(4-(3-ethyl-4-(methyl(1-methyl-1H-imidazo[4,5-c]pyridin-6-yl)amino)phenyl)-5,6-dihydropyridin-1(2H)-yl)propan-1-one]",0.01 to 100 nM,101 to 500 nM,1 to 500 nM,0.01 to 100 nM,,
"CN(c1cc2c(cn1)ncn2C)c1ccc(C#N)cc1F [Compound 267, 3-fluoro-4-(methyl(1-methyl-1H-imidazo[4,5-c]pyridin-6-yl)amino)benzonitrile]",501 to 1000 nM,> 1000 nM,> 1000 nM,> 1000 nM,,
"CCCn1cc(-c2ccc(N(C)c3cc4c(cn3)ncn4C)c(CC)c2)cn1 [Compound 240, N-(2-ethyl-4-(1-propyl-1H-pyrazol-4-yl)phenyl)-N,1-dimethyl-1H-imidazo[4,5-c]pyridin-6-amine]",0.01 to 100 nM,501 to 1000 nM,501 to 1000 nM,0.01 to 100 nM,,
"CCc1cc(O[C@@H]2CCN(S(C)(=O)=O)C2)ccc1N(C)c1cc2c(cn1)ncn2C [Compound 259, (R)-N-(2-ethyl-4-(1-(methylsulfonyl)pyrrolidin-3-yloxy)phenyl)-N,1-dimethyl-1H-imidazo[4,5-c]pyridin-6-amine]",0.01 to 100 nM,501 to 1000 nM,501 to 1000 nM,101 to 500 nM,,
"CCC(=O)N1CCC(c2ccc(N(C)c3cc4c(cn3)ncn4C)c(CC)c2)CC1 [Compound 223, 1-(4-(3-ethyl-4-(methyl(1-methyl-1H-imidazo[4,5-c]pyridin-6-yl)amino)phenyl)piperidin-1-yl)propan-1-one]",0.01 to 100 nM,101 to 500 nM,,0.01 to 100 nM,,1 to 500 nM
"CCc1cc(C2=CCN(C(=O)C(O)C(F)(F)F)CC2)ccc1N(C)c1cc2c(cn1)ncn2C (stereo not shown) [Compound 230, 1-(4-(3-ethyl-4-(methyl(1-methyl-1H-imidazo[4,5-c]pyridin-6-yl)amino)phenyl)-5,6-dihydropyridin-1(2H)-yl)-3,3,3-trifluoro-2-hydroxypropan-1-one]",0.01 to 100 nM,0.01 to 100 nM,1 to 500 nM,0.01 to 100 nM,,
"CCc1cc(C2=CCN(C(=O)N(C)CC#N)CC2)ccc1N(C)c1cc2c(cn1)ncn2C [Compound 207, N-(Cyanomethyl)-4-(3-ethyl-4-(methyl(1-methyl-1H-imidazo[4,5-c]pyridin-6-yl)amino)phenyl)-N-methyl-5,6-dihydropyridine-1(2H)-carboxamide]",0.01 to 100 nM,101 to 500 nM,,0.01 to 100 nM,501 to 1000 nM,
"CCc1cc(-c2cccc(C#N)c2)ccc1N(C)c1cc2c(cn1)ncn2C [Compound 163, 3′-ethyl-4′-(methyl(1-methyl-1H-imidazo[4,5-c]pyridin-6-yl)amino)biphenyl-3-carbonitrile]",0.01 to 100 nM,501 to 1000 nM,501 to 1000 nM,501 to 1000 nM,,
"CCc1cc(CN2CCN(S(C)(=O)=O)CC2)ccc1N(C)c1cc2c(cn1)ncn2C [Compound 136, N-(2-Ethyl-4-((4-(methylsulfonyl)piperazin-1-yl)methyl)phenyl)-N,1-dimethyl-1H-imidazo[4,5-c]pyridin-6-amine]",0.01 to 100 nM,501 to 1000 nM,501 to 1000 nM,0.01 to 100 nM,,
"CCc1cc(-c2noc(COC)n2)ccc1N(C)c1cc2c(cn1)ncn2C [Compound 157, N-(2-ethyl-4-(5-(methoxymethyl)-1,2,4-oxadiazol-3-yl)phenyl)-N,1-dimethyl-1H-imidazo[4,5-c]pyridin-6-amine]",0.01 to 100 nM,> 1000 nM,> 1000 nM,0.01 to 100 nM,,
"CCc1cc(-c2cnn(CC#N)c2)ccc1N(C)c1cc2c(cn1)ncn2C [Compound 209, 2-(4-(3-ethyl-4-(methyl(1-methyl-1H-imidazo[4,5-c]pyridin-6-yl)amino)phenyl)-1H-pyrazol-1-yl)acetonitrile]",0.01 to 100 nM,101 to 500 nM,501 to 1000 nM,101 to 500 nM,,
"CCc1cc(C2=CCN(C(=O)NC3(C)CC3)CC2)ccc1N(C)c1cc2c(cn1)ncn2C [Compound 202, 4-(3-ethyl-4-(methyl(1-methyl-1H-imidazo[4,5-c]pyridin-6-yl)amino)phenyl)-N-(1-methylcyclopropyl)-5,6-dihydropyridine-1(2H)-carboxamide]",0.01 to 100 nM,101 to 500 nM,1 to 500 nM,0.01 to 100 nM,,
